Test results published in article PMC4467886 (Archives of biochemistry and biophysics, 2008).

Each compound was assayed against T1, 5,10-methenyltetrahydrofolate synthetase (MTHFS) (Mus musculus, UniProt Q9D110) (assay: spectrophotometric MTHFS activity assay).
T1 sequence (Q9D110 2-203): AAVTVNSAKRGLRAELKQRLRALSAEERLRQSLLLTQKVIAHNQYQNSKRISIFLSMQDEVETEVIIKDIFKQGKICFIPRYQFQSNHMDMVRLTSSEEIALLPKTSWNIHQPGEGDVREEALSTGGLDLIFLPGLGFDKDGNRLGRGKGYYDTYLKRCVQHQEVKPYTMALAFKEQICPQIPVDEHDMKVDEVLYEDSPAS
Assay type: biochemical

`Nc1nc2c(c(=O)[nH]1)C[C@@H](CCc1ccc(C(=O)N[C@@H](CCC(=O)O)C(=O)O)cc1)CN2` [Lometrexol] and `Nc1nc2c(c(=O)[nH]1)C[C@@H](CCc1ccc(C(=O)N[C@@H](CCC(=O)O)C(=O)O)s1)CN2` [LY309887] are within error of each other in Ki: 9 ± 3 µM for the first, 6 ± 1 µM for the second.

Work on `Nc1nc2[nH]cc(CCc3ccc(C(=O)N[C@@H](CCC(=O)O)C(=O)O)cc3)c2c(=O)[nH]1` [Pemetrexed] yielded a Ki of 48 ± 11 µM.
